The record followed here is patent publication US20100285140A1, “ANTIMICROBIAL AGENT FOR GRAM-POSITIVE BACTERIA” (priority 2007, published 2010).

Common to all, as to assay: broth microdilution MIC/MBC
Format in all cases: cell-based
In general terms: In broth dilution the organism is exposed to a series of concentrations in liquid medium.

Assay [1] has as its system MSSA JCM2874. Particulars: Staphylococcus aureus, ABPC.
The subject of assay [2] is MSSA ATCC6538. Particulars: Staphylococcus aureus, ABPC.
Assay [3] concerns MRSA N315. Particulars: Staphylococcus aureus, ABPC.
Assay [4] deals with MRSA JCM8703. Particulars: Staphylococcus aureus, ABPC.
Assay [5] deals with MRSA clinical isolate 1801 blaZ(−). Particulars: Staphylococcus aureus, ABPC.
Assay [6] concerns MRSA clinical isolate 2022 blaZ(−). Particulars: Staphylococcus aureus, ABPC.
In assay [7] the test system is MRSA clinical isolate 2005 blaZ(+). Particulars: Staphylococcus aureus, ABPC.
Assay [8] concerns MRSA clinical isolate 2526 blaZ(+). Particulars: Staphylococcus aureus, ABPC.
Assay [9] concerns VSE5804. Particulars: Enterococcus, ABPC. As for the experimental part: Ampicillin (ABPC) was used as a positive control. The measurement was carried out in accordance with a broth microdilution method (NCCLS). […] These serial dilutions were placed in a 96-well plate, and a bacterial strain was added to each well at an amount of 10^5 CFU/ml, followed by incubation at 35° C. for 18 hours. In the case where turbidity was visually observed, it was judged that the bacterial strain grew. The lowest concentration at which the bacterial growth was not observed was defined as MIC. A solution was collected from the well in which bacterial growth was not observed, added to an antibiotic-free medium, and then incubated at 35° C. for 18 hours, followed by visually observing existence of turbidity. The lowest concentration at which turbidity was not observed was defined as MBC. Values in the tables are: ABPC, μg/ml; polymer particles, mg/ml. Numbers in the parentheses indicate the dilution factor.

Assay [10] has as its system VRE GTC02000. Particulars: Enterococcus, ABPC.

In brackets after ≈: the same amount, converted by molar mass.

Broadly, the MBC is the lowest tested concentration that kills the bacteria rather than only halting them. High values mean weaker bactericidal potency, low ones greater bactericidal potency. The MIC is the lowest concentration that inhibits growth of the organism. Lower therefore signals a more susceptible organism.

With `CC1(C)S[C@@H]2[C@H](NC(=O)[C@H](N)c3ccccc3)C(=O)N2[C@H]1C(=O)O` [ABPC, Ampicillin], the MBC in assay [1] was found to be 2 µg/mL (≈ 5.72 µM); in [2], 0.063 µg/mL (≈ 0.18 µM); in assay [3], 32 µg/mL (≈ 91.6 µM); in assay [4], 64 µg/mL (≈ 183 µM); in assay [5] it was 16 µg/mL (≈ 45.8 µM); in assay [6], 16 µg/mL (≈ 45.8 µM). The MBC in [7] is 64 µg/mL (≈ 183 µM); in [8] it was 64 µg/mL (≈ 183 µM); in assay [9], 0.5 µg/mL (≈ 1.43 µM); in assay [10], 1 µg/mL (≈ 2.86 µM). Also, the MIC is 2 µg/mL (≈ 5.72 µM) in assay [1]; 0.063 µg/mL (≈ 0.18 µM) in [2]; 64 µg/mL (≈ 183 µM) in assay [4]; 16 µg/mL (≈ 45.8 µM) in assay [5]; 16 µg/mL (≈ 45.8 µM) in assay [6]; 64 µg/mL (≈ 183 µM) in [7]. Further, the minimal inhibitory concentration (MIC) in assay [8] stood at 64 µg/mL (≈ 183 µM); in assay [9] it was 0.5 µg/mL (≈ 1.43 µM); in assay [10], 1 µg/mL (≈ 2.86 µM).
